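Tested at 5 concentrations; 48 h exposure; 96-well plates; endpoints linearly interpolated, else capped at highest concentration. GI50 marks 50% less growth.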 The source made the active and inactive calls. No stated cut-off is given here; in the data, active = GI50 up to about 1.1 µM and inactive = higher.
How the values were obtained:
Experiment in all cases: NCI tumour cell line growth inhibition, 48 h
[1] = tested on: MDA-N
[2] = tested on: RPMI-8226
[3] = tested on: LXFL 529
[4] = tested on: HCC 2998
[5] = tested on: SK-MEL-28
[6] = tested on: SK-MEL-2
[7] = tested on: SK-OV-3
[8] = tested on: CCRF-CEM
[9] = tested on: SF-295
[10] = tested on: NCI-H460
[11] = tested on: UACC-62
[12] = tested on: CAKI-1
[13] = tested on: MOLT-4
[14] = tested on: NCI-H226
[15] = tested on: HCT-116
[16] = tested on: SNB-75
[17] = tested on: M14
[18] = tested on: PC-3
[19] = tested on: NCI-H522
[20] = tested on: 786-0

Measured: GI50

Cn1c2ccccc2n2c3nc4ccccc4nc3c(C#N)c12
inactive: [1] > 100 µM | [2] 71 µM | [3] > 100 µM | [4] 9.68 µM | [5] > 100 µM | [6] > 4.65 µM | [7] 99.5 µM | [8] 60 µM | [9] 88.3 µM | [10] 5.48 µM | [11] 65.5 µM | [12] > 100 µM | [13] 57.8 µM | [14] > 100 µM | [15] 53.8 µM | [16] > 30.8 µM | [17] > 100 µM | [18] > 96.8 µM | [19] 5.9 µM | [20] 93.8 µM

COc1ccc(/C(Cl)=C(\C=N/O)c2ccc(OC)c(OC)c2)cc1OC
inactive: [2] > 100 µM | [3] > 100 µM | [4] > 100 µM | [5] > 100 µM | [6] > 100 µM | [7] > 100 µM | [8] > 100 µM | [9] 81.7 µM | [10] > 100 µM | [11] > 100 µM | [12] > 100 µM | [13] > 100 µM | [14] > 100 µM | [15] > 100 µM | [16] > 100 µM | [17] 51.3 µM | [19] > 100 µM | [20] > 100 µM

From ChEMBL document CHEMBL1201862, “PubChem BioAssay data set” (2004)
